Measured values published in PubChem BioAssay (NCI).
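How tested: cells in 96-well plates exposed to compound for 48 hours at five concentrations. The concentration for 50% growth inhibition is given as GI50. TGI marks complete inhibition of growth.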

Columns and labels:
Assay in all cases: growth of human tumour cells (NCI), 48 h
NCI-H460 lung = tested on: NCI-H460 lung
NCI-H522 lung = tested on: NCI-H522 lung
NCI/ADR-RES ovarian = tested on: NCI/ADR-RES ovarian
OVCAR-3 ovarian = tested on: OVCAR-3 ovarian
OVCAR-4 ovarian = tested on: OVCAR-4 ovarian
OVCAR-5 ovarian = tested on: OVCAR-5 ovarian
OVCAR-8 ovarian = tested on: OVCAR-8 ovarian
PC-3 prostate = tested on: PC-3 prostate
RPMI-8226 leukemia = tested on: RPMI-8226 leukemia
RXF 393 renal = tested on: RXF 393 renal
SF-268 CNS = tested on: SF-268 CNS
SF-295 CNS = tested on: SF-295 CNS
SF-539 CNS = tested on: SF-539 CNS
SK-MEL-2 melanoma = tested on: SK-MEL-2 melanoma
SK-MEL-28 melanoma = tested on: SK-MEL-28 melanoma
SK-MEL-5 melanoma = tested on: SK-MEL-5 melanoma
SK-OV-3 ovarian = tested on: SK-OV-3 ovarian
SN12C renal = tested on: SN12C renal
SNB-19 CNS = tested on: SNB-19 CNS
SNB-75 CNS = tested on: SNB-75 CNS
SR leukemia = tested on: SR leukemia
T-47D breast = tested on: T-47D breast
TK-10 renal = tested on: TK-10 renal
U251 CNS = tested on: U251 CNS
UACC-257 melanoma = tested on: UACC-257 melanoma
UACC-62 melanoma = tested on: UACC-62 melanoma
UO-31 renal = tested on: UO-31 renal

CC(C)(O)c1cncc(-c2ccc3ncnc(N4CCc5cc(F)c(Cl)cc54)c3c2)c1
TGI (NCI-H460 lung): > 100 µM
GI50 (NCI-H522 lung): 1.87 µM
TGI (NCI-H522 lung): 85.2 µM
GI50 (NCI/ADR-RES ovarian): 1.59 µM
TGI (NCI/ADR-RES ovarian): > 100 µM
GI50 (OVCAR-3 ovarian): 2.27 µM
TGI (OVCAR-3 ovarian): > 100 µM
GI50 (OVCAR-4 ovarian): 1.35 µM
TGI (OVCAR-4 ovarian): > 100 µM
GI50 (OVCAR-5 ovarian): 1.17 µM
TGI (OVCAR-5 ovarian): > 100 µM
GI50 (OVCAR-8 ovarian): 2.59 µM
TGI (OVCAR-8 ovarian): > 100 µM
GI50 (PC-3 prostate): 0.775 µM
TGI (PC-3 prostate): > 100 µM
GI50 (RPMI-8226 leukemia): 1.99 µM
TGI (RPMI-8226 leukemia): > 100 µM
GI50 (RXF 393 renal): 0.432 µM
TGI (RXF 393 renal): 3.07 µM
GI50 (SF-268 CNS): 3.22 µM
TGI (SF-268 CNS): > 100 µM
GI50 (SF-295 CNS): 1.14 µM
TGI (SF-295 CNS): 23.1 µM
GI50 (SF-539 CNS): 1.96 µM
TGI (SF-539 CNS): 84.5 µM
GI50 (SK-MEL-2 melanoma): 4.89 µM
TGI (SK-MEL-2 melanoma): 66.6 µM
GI50 (SK-MEL-28 melanoma): 2.98 µM
TGI (SK-MEL-28 melanoma): > 100 µM
GI50 (SK-MEL-5 melanoma): 2.94 µM
TGI (SK-MEL-5 melanoma): > 100 µM
GI50 (SK-OV-3 ovarian): 0.649 µM
TGI (SK-OV-3 ovarian): 12.2 µM
GI50 (SN12C renal): 0.749 µM
TGI (SN12C renal): > 100 µM
GI50 (SNB-19 CNS): 2.51 µM
TGI (SNB-19 CNS): > 100 µM
GI50 (SNB-75 CNS): 0.407 µM
TGI (SNB-75 CNS): 15.2 µM
GI50 (SR leukemia): 1.52 µM
TGI (SR leukemia): > 100 µM
GI50 (T-47D breast): 0.236 µM
TGI (T-47D breast): 4.08 µM
GI50 (TK-10 renal): 0.417 µM
TGI (TK-10 renal): > 100 µM
GI50 (U251 CNS): 6.75 µM
TGI (U251 CNS): > 100 µM
GI50 (UACC-257 melanoma): 3.96 µM
TGI (UACC-257 melanoma): > 100 µM
GI50 (UACC-62 melanoma): 0.543 µM
TGI (UACC-62 melanoma): > 100 µM
GI50 (UO-31 renal): 0.184 µM
TGI (UO-31 renal): 74.2 µM
